# Data reported in ChEMBL document CHEMBL3046232, “Synthesis, pharmacological evaluation and molecular docking studies of indanone derivatives” (2012).
# What was measured:
# Assay type in all cases: functional
# Rattus norvegicus [1] = assay: Anti-inflammatory activity in Rattus norvegicus Wistar albino (rat) assessed as protection against carrageenan-induced paw edema at 50 mg/kg after 30 min
# Rattus norvegicus [2] = assay: Anti-inflammatory activity in Rattus norvegicus Wistar albino (rat) assessed as protection against carrageenan-induced paw edema at 50 mg/kg after 2 hr
# Bacillus subtilis [3] = assay: Antimicrobial activity against at Bacillus subtilis at 25 ug/ml by cup plate method; conditions: read-out: IZ
# Bacillus subtilis [4] = assay: Antimicrobial activity against at Bacillus subtilis at 50 ug/ml by cup plate method; conditions: read-out: IZ
# Penicillium chrysogenum [5] = assay: Antimicrobial activity against at Penicillium chrysogenum at 50 ug/ml by cup-plate method; conditions: read-out: IZ
# Escherichia coli [6] = assay: Antimicrobial activity against at Escherichia coli at 100 ug/ml by cup-plate method; conditions: read-out: IZ
# Mus musculus [7] = assay: Analgesic activity in Mus musculus Swiss albino (mouse) assessed as increase in reaction time of paw licking or jump response at 50 mg/kg, po after 90 min by hot plate method
# Escherichia coli [8] = assay: Antimicrobial activity against at Escherichia coli at 25 ug/ml by cup-plate method; conditions: read-out: IZ
# Escherichia coli [9] = assay: Antimicrobial activity against at Escherichia coli at 50 ug/ml by cup-plate method; conditions: read-out: IZ
# Aspergillus niger [10] = assay: Antimicrobial activity against at Aspergillus niger at 100 ug/ml by cup-plate method; conditions: read-out: IZ
# Penicillium chrysogenum [11] = assay: Antimicrobial activity against at Penicillium chrysogenum at 100 ug/ml by cup-plate method; conditions: read-out: IZ
# Mus musculus [12] = assay: Analgesic activity in Mus musculus Swiss albino (mouse) assessed as increase in reaction time of paw licking or jump response at 50 mg/kg, po after 60 min by hot plate method
# Bacillus subtilis [13] = assay: Antimicrobial activity against at Bacillus subtilis at 100 ug/ml by cup plate method; conditions: read-out: IZ
# Rattus norvegicus [14] = assay: Anti-inflammatory activity in Rattus norvegicus Wistar albino (rat) assessed as protection against carrageenan-induced paw edema at 50 mg/kg after 60 min
# Mus musculus [15] = assay: Analgesic activity in Mus musculus Swiss albino (mouse) assessed as increase in reaction time of paw licking or jump response at 50 mg/kg, po after 30 min by hot plate method
# Penicillium chrysogenum [16] = assay: Antimicrobial activity against at Penicillium chrysogenum at 25 ug/ml by cup-plate method; conditions: read-out: IZ
# Aspergillus niger [17] = assay: Antimicrobial activity against at Aspergillus niger at 50 ug/ml by cup-plate method; conditions: read-out: IZ
# Aspergillus niger [18] = assay: Antimicrobial activity against at Aspergillus niger at 25 ug/ml by cup-plate method; conditions: read-out: IZ
# Rattus norvegicus [19] = assay: Anti-inflammatory activity in Rattus norvegicus Wistar albino (rat) assessed as protection against carrageenan-induced paw edema at 50 mg/kg after 3 hr
# Rattus norvegicus [20] = assay: Anti-inflammatory activity in Rattus norvegicus Wistar albino (rat) assessed as protection against carrageenan-induced paw edema at 50 mg/kg after 90 min
# Mus musculus [21] = assay: Analgesic activity in Mus musculus Swiss albino (mouse) assessed as increase in reaction time of paw licking or jump response at 20 mg/kg, po after 90 min by hot plate method
# Mus musculus [22] = assay: Analgesic activity in Mus musculus Swiss albino (mouse) assessed as increase in reaction time of paw licking or jump response at 20 mg/kg, po after 60 min by hot plate method
smiles,measurement,setting,value
O=C1c2ccccc2-c2noc(-c3ccc([N+](=O)[O-])cc3)c21,Activity,Rattus norvegicus [1],10.92%
same,Activity,Rattus norvegicus [2],16.21%
same,zone of inhibition at 25 µg/mL,Bacillus subtilis [3],4.5 mm
same,zone of inhibition at 50 µg/mL,Bacillus subtilis [4],6.75 mm
same,zone of inhibition at 50 µg/mL,Penicillium chrysogenum [5],11 mm
same,zone of inhibition at 100 µg/mL,Escherichia coli [6],18.5 mm
same,Activity,Mus musculus [7],8.55%
same,zone of inhibition at 25 µg/mL,Escherichia coli [8],5.5 mm
same,zone of inhibition at 50 µg/mL,Escherichia coli [9],13 mm
same,zone of inhibition at 100 µg/mL,Aspergillus niger [10],16.2 mm
same,zone of inhibition at 100 µg/mL,Penicillium chrysogenum [11],15 mm
same,Activity,Mus musculus [12],5.91%
same,zone of inhibition at 100 µg/mL,Bacillus subtilis [13],14.5 mm
same,Activity,Rattus norvegicus [14],13.35%
same,Activity,Mus musculus [15],3.95%
same,zone of inhibition at 25 µg/mL,Penicillium chrysogenum [16],4.5 mm
same,zone of inhibition at 50 µg/mL,Aspergillus niger [17],13.5 mm
same,zone of inhibition at 25 µg/mL,Aspergillus niger [18],4.75 mm
same,Activity,Rattus norvegicus [19],17.21%
same,Activity,Rattus norvegicus [20],18.51%
O=C([O-])Cc1ccccc1Nc1c(Cl)cccc1Cl.[Na+] [DICLOFENAC SODIUM],Activity,Mus musculus [21],34.62%
same,Activity,Mus musculus [22],27.59%
